Reference: patent US20230414567A1, “METHODS OF TREATING CONDITIONS RELATED TO THE S1P1 RECEPTOR” (Arena Pharmaceuticals, Inc., priority 2020, published 2023)

Assays:
[1] = system: healthy adult subjects; settings: single doses up to 5 mg, repeated doses up to 4 mg QD; cited from earlier work
[2] = system: patients with moderate to severe atopic dermatitis; assay: Phase 2 randomized, double-blind, placebo-controlled study: efficacy (EASI, vIGA, pruritus NRS, patient-reported outcomes); format: in vivo, human; settings: for reduction in EASI from baseline to week 12: 12 weeks (n=47); for delta versus placebo in vIGA 0 or 1 response at week 12: p<0.05
Experimental: A Phase 2, multicenter, randomized, double-blind, placebo-controlled study was conducted to assess the safety and efficacy of etrasimod in patients with moderate to severe atopic dermatitis. The primary endpoint measured was percent change in Eczema Area and Severity Index (EAST) from baseline to week 12, followed by a 4-week follow-up observation period. Secondary endpoints include the proportion of participants achieving EASI-75, proportion of participants with a validated Investigator Global Assessment (vIGA) 0 to 1, and percent change in peak pruritis. The trial enrolled approximately 140 patients and was conducted in study sites across the United States, Canada and Australia. An open-label extension of the trial is ongoing. The study included multiple periods: (i) up to a 4-week screening period (to determine subject eligibility); (ii) a 12-week double-blind treatment period with a 4-week safety follow-up period; and (iii) a 52-week open-label extension period followed by a 4-week safety follow-up period. Subjects with chronic AD for at least one year (as defined by Hanifin and Rajka criteria (Hanifin 1980)) despite optimized skin care (e.g., use of emollients, avoidance of irritants) whose disease is not adequately controlled with topical therapies, or for whom those therapies are not advisable, were equally randomized (1:1:1 ratio) to receive etrasimod (1 or 2 mg) or placebo. Etrasimod 1 or 2 mg tablets or matching placebo tablets were taken orally once daily during the double-blind treatment period. Etrasimod 2 mg tablets are taken orally once daily during the open-label extension period. There is no reference therapy (no placebo) during the open-label extension period. Inclusion Criteria: Subjects must meet ALL of the following inclusion criteria to be eligible for enrollment into the study. • 1. Men or women between ≥18 and ≤70 years of age at the time of informed consent. • 2. Chronic AD, defined by Hanifin and Rajka criteria (Hanifin 1980), that has been present for at least one year prior to the screening visit. • 3. Eczema Area and Severity Index (EAST)≥12 at the screening visit and ≥16 at the baseline visit. • 4. vIGA score≥3 (on the 0 to 4 vIGA scale, in which 3=moderate and 4=severe) involvement at the screening and baseline visits. • 5. Body surface area (BSA)≥10% of AD involvement at the screening and baseline visits. • 6. Recent history (within 6 months prior to the screening visit) of inadequate response to treatment with topical medications, or when topical treatments are otherwise medically inadvisable (e.g., because of important side effects or safety risks), which can be documented by medical records or by the history provided to the investigator by the subject despite optimized skin care (.e., avoidance of irritants, use of emollients). • 7. Willing to apply a dose of topical emollient/moisturizer at least once daily for ≥1 week prior to the baseline visit and willing to continue daily application over the course of the study without change (i.e., type, frequency, application). • 8. Willing and able to comply with all clinic visits and study-related procedures and understand and complete study-related questionnaires. • 9. Provide signed informed consent prior to conducting any procedures. Efficacy was assessed by changes in AD severity using EASI, vIGA, SCORing Atopic Dermatitis (SCORAD), and BSA. Symptoms of itch were assessed using the pruritus numeric rating scale (NRS). Patient-reported outcomes will also be assessed using the Dermatology Life Quality Index (DLQI), Patient Oriented Eczema Measure (POEM), and Patient Global Assessment (PGA).

[3] = system: UC patients; settings: 2 mg QD for 12 weeks; cited from earlier work
[4] = system: patients with moderate to severe atopic dermatitis; assay: Phase 2 atopic dermatitis study: adverse events and tolerability; format: in vivo, human
[5] = system: lymphocyte count; assay: Phase 2 atopic dermatitis study: absolute/peripheral lymphocyte count; format: in vivo, human
Source text: (§1) The study included multiple periods: (i) up to a 4-week screening period (to determine subject eligibility); (ii) a 12-week double-blind treatment period with a 4-week safety follow-up period; and (iii) a 52-week open-label extension period followed by a 4-week safety follow-up period. Subjects with chronic AD for at least one year (as defined by Hanifin and Rajka criteria (Hanifin 1980)) despite optimized skin care (e.g., use of emollients, avoidance of irritants) whose disease is not adequately controlled with topical therapies, or for whom those therapies are not advisable, were equally randomized (1:1:1 ratio) to receive etrasimod (1 or 2 mg) or placebo. Etrasimod 1 or 2 mg tablets or matching placebo tablets were taken orally once daily during the double-blind treatment period. Etrasimod 2 mg tablets are taken orally once daily during the open-label extension period. There is no reference therapy (no placebo) during the open-label extension period.
During the double-blind treatment period, etrasimod plasma concentrations and a complete blood count (CBC) including lymphocyte count were assessed on day 1 and before dosing at subsequent study visits. Study visits occurred at baseline, week 1, week 2, week 4, week 6, week 8, week 12, at the end of treatment, and at the week 16 follow-up visit. The absolute lymphocyte count (ALC) was included as part of the assessment.

[6] = system: heart rate; assay: Phase 2 atopic dermatitis study: heart rate effects after first dose; format: in vivo, human; settings: for placebo corrected maximal mean heart rate decrease from baseline: 2 hours after first dose
Source text: as §1
There was a decrease of 1.5 bpm in the 1 mg group and a decrease of 6.7 bpm in the 2 mg group. […] After the first dose, the heart rate differences across the 3 groups came together by week 1 and were similar from weeks 2-12. One participant in the 2 mg etrasimod group had transient 2nd degree AVB Type 1 which was self-limited, and asymptomatic. The participant went on to further dosing without any cardiac changes or symptoms.

In the case of O=C(O)C[C@H]1CCc2c1[nH]c1ccc(OCc3ccc(C4CCCC4)c(C(F)(F)F)c3)cc21 [etrasimod, (R)-2-(7-(4-cyclopentyl-3-(trifluoromethyl)benzyloxy)-1,2,3,4-tetrahydrocyclopenta[b]indol-3-yl)acetic acid], the “safety and tolerability in clinical trials” value [1] is given as “safe and well-tolerated”, the “patients achieving EASI-75” value ([2]; 1 mg once daily, week 12) is given as 27.7% and the “patients achieving vIGA of 0 or 1 and a reduction from baseline of >=2 points at week 12” value ([2]; 1 mg once daily, week 12) is given as 14.9%. The “reduction in EASI from baseline to week 12” value ([2]; 1 mg orally once daily) was 58.7%, the “proportion of patients with decrease in pruritus >=4 points at week 12” value ([2]; 1 mg, week 12, p=0.61 vs placebo) was 32.5% and the “improvement in EASI from baseline to week 4” value ([2]; 2 mg dose group, week 4) was “statistically significant improvement”. The “improvement in pruritis at week 4” value ([2]; 2 mg dose group, week 4) was “statistically significant improvement”, the “proportion of patients who achieved EASI-75 at week 4” value ([2]; 2 mg dose group, week 4) was “statistically significant improvement” and the “delta versus placebo in vIGA 0 or 1 response at week 12” value ([2]; 2 mg group vs placebo) was 16.8%. For the same compound, the “percent change in EASI over time versus placebo” value ([2]; 2 mg group without interruptions, weeks 4 to 12) was “significant at 4 weeks”, the “patients achieving EASI-75 at week 12” value ([2]; 2 mg group without study interruptions) was 42.1% and the “patients achieving vIGA of 0 or 1 and reduction from baseline >=2 points at week 12” value ([2]; 2 mg group without study interruptions (38 participants)) was 36.8%. For the same compound, the “delta versus placebo in vIGA 0 or 1 response at week 12” value ([2]; 2 mg group without study interruptions vs placebo) was 23.8%, the “patients achieving EASI-75” value ([2]; 2 mg once daily, week 12) was 38.3% and the “patients achieving vIGA of 0 or 1 and a reduction from baseline of >=2 points at week 12” value ([2]; 2 mg once daily, week 12) was 29.8%. For the same compound, the “reduction in EASI from baseline to week 12” value ([2]; 2 mg orally once daily) was 57.2%, the “treatment response after restart of treatment” value ([2]; 2 mg patients with dose interruption, after restart) was “recaptured” and the “EASI change from baseline in patients who ceased then reinitiated treatment” value ([2]; 2 mg patients with dose interruption, to week 12) was “improved rapidly after resumption”. The “patient-reported and clinician-assessed outcomes versus placebo” value ([2]; 2 mg, over 12 weeks) was “improved patient-reported outcomes and clinician-assessed outcomes versus placebo”, the “proportions of patients achieving vIGA score of 0 or 1, DLQI and POEM versus placebo” value ([2]; 2 mg, week 12) was “significantly greater proportions” and the “proportion of patients with decrease in pruritus >=4 points at week 12” value ([2]; 2 mg, week 12, p=0.15 vs placebo) was 42.1%. For the same compound, the “pruritis NRC changes over time versus placebo” value ([2]; etrasimod group without interruptions) was “statistically significant from weeks 2-8”, the “endoscopic and symptomatic improvements versus placebo” value [3] was “clinically meaningful and statistically significant endoscopic and symptomatic improvements” and the tolerability ([4]; 1 mg and 2 mg, 12-week double-blind period) was “well tolerated”. For the same compound, the cases of dyspnea ([4]; 2 mg treatment group) was “one case”, the “adverse events related to heart rate” value ([4]; double-blind treatment period) was “no adverse events related to heart rate” and the “cases of macular edema” value ([4]; double-blind treatment period) was “no cases”. The “conjunctivitis, acne, venous thromboembolic events, opportunistic or serious infections” value ([4]; double-blind treatment period) was “no reports”, the “patients with ALC measurement of Grade 3 (between 0.2x10e9 and 0.5x10e9 cells/L)” value ([5]; 2 mg group, between weeks 4 and 8) was “nine” and the “maximal reduction in the peripheral lymphocyte count” value ([5]; 2 mg group, week 2) was 43.6%. The “lymphocyte count after treatment withdrawal” value ([5]; 2 mg patients with dose interruption, between weeks 4 and 8) was “rapid rebound in lymphocyte count”, the “blood pressure changes or symptoms associated with heart rate changes” value ([6]; 1 mg and 2 mg groups, after first dose) was “not associated with any blood pressure changes or symptoms” and the “placebo corrected maximal mean heart rate decrease from baseline” value ([6]; 1 mg group) was 1.5 bpm. For the same compound, the “placebo corrected maximal mean heart rate decrease from baseline” value ([6]; 2 mg group) was 6.7 bpm and the “participants with transient 2nd degree AVB Type 1” value ([6]; 2 mg group, self-limited, asymptomatic) was “One”.
